Assay [1] addresses T1, P-GltPh (S279E/D405N) (Pyrococcus horikoshii, UniProt O59010, D37H/D405N/E368H/K125H/K132H/K223H/K264H/K40H/S279E).
T1 construct: (His)8 behind a thrombin cleavage site (C, cleaved yes); made in house; host or cells: Escherichia coli DH10B
The assay is classed as binding. To be noted: for n1 / n2: single trials; for % n2 / ΔS1: trials and avg (mean ± SD); for fitted OFS2 fraction: L-Asp ITC, 500 mM sodium salt. The procedure: (§1) Proteins were immediately concentrated to >5 mg/ml and diluted 2.5-fold to a final concentration of 30–50 µM. When diluted, the sample was supplemented with a final concentration of 1 mM DDM, 58 mM HEPES/KOH, pH 7.4, and an appropriate amount of sodium salt. 350 μl of protein samples was degassed and equilibrated to the temperature of the experiment, and ∼300 μl was loaded into the reaction cell of a small-volume NanoITC (TA Instruments), or in the case of TFB-TBOA experiments, an Affinity Auto ITC (TA Instruments). […] 2 μl of titrant was injected every 5–6 min, at a constant temperature and a stirring rate of 250 rpm (125 rpm for TFB-TBOA experiments). Injection heats measured after protein was saturated with the ligand were used to determine the dilution heats subtracted from the ligand binding heats. Data were analyzed using NanoAnalyze software (TA Instruments) applying either the “independent” or “multiple sites” (referred to as “single-state” and “two-state,” respectively, throughout the text) binding models. […] The fraction of total protein bound is given by the following: [PS]/[P]=n1K1[S]/1+K1[S]+n2K2[S]/1+K2[S], where ni is the apparent number of sites per protein molecule.

In a further assay the test system is D390A mutant. Also noted: method as in Riederer and Valiyaveetil, 2019. To be noted: ref Riederer and Valiyaveetil, 2019; cited from earlier work.
A further assay deals with GltPh Y317F. Also noted: method as in Riederer and Valiyaveetil, 2019. To be noted: ref Riederer and Valiyaveetil, 2019; cited from earlier work.
For assay [2], the system named is liposome-reconstituted GltPh. Further details: method as in Hall et al., 2020. The settings on record: ref Hall et al., 2020; cited from earlier work.
In the next assay the target is T2, WT GltPh (Pyrococcus horikoshii, UniProt O59010, D37H/E368H/K125H/K132H/K223H/K264H/K40H).
T2 construct: (His)8 behind a thrombin cleavage site (C, cleaved yes); made in house; host or cells: Escherichia coli DH10B
Put plainly: ITC of L-Asp and TFB-TBOA binding to WT GltPh. The procedure:
as §1
For the TFB-TBOA competition experiments, protein was first titrated with TBOA to saturation. Then, the concentration of TFB-TBOA was increased to a final concentration of 150 μM of TFB-TBOA, so that the overflow protein was also saturated.

A further assay deals with T3, GltPh (C321A/N378C) (Pyrococcus horikoshii, UniProt O59010, C321A/D37H/E368H/K125H/K132H/K223H/K264H/K40H/N378C).
T3 construct: (His)8 behind a thrombin cleavage site (C, cleaved yes); made in house; host or cells: Escherichia coli DH10B
Type of assay: biochemical. The settings on record: 200 mM sodium salt, 1 μM valinomycin, 1 μM L-Asp; triexponential fit; means and SEM.

Another assay deals with GltPh. Also noted: method as in earlier work. The settings on record: OFS over IFS; ref Mcilwain et al., 2016; Boudker et al., 2007; Wang and Boudker, 2020; cited from earlier work.
Assay [3] deals with P-GltPh (S279E/D405N) (UniProt O59010). Put plainly: cryo-EM structure; P-GltPh in 0.8 mM DDM, 20 mM HEPES/Tris pH 7.4, 250 mM NaNO3, 1 mM L-Asp; C3 symmetry imposed, then symmetry expansion and focused classification of single protomers; Data S2 (L-Asp present throughout purification) and Data S1 (L-Asp added ~5 s before freezing).
[4] abbreviates: 500 mM NaCl, 10°C and 15°C, n = 6.
Setting [5] is: 10°C, 500 mM NaCl, two-state model.
The mark [6] stands for this setting: 15°C, 500 mM NaCl, two-state model.
Setting [7] is: 500 mM Na-gluconate, 15°C, Fit 1.
[8] abbreviates: 500 mM Na-gluconate, 15°C, Fit 2.

“And” between values parts separate entries of the source, which are not always exact repeats. Identical values can stand only once. Like-named read-outs stand apart in the source and are kept apart here.

T2 sequence (O59010 1-417 D37H/K40H/K125H/K132H/K223H/K264H/E368H): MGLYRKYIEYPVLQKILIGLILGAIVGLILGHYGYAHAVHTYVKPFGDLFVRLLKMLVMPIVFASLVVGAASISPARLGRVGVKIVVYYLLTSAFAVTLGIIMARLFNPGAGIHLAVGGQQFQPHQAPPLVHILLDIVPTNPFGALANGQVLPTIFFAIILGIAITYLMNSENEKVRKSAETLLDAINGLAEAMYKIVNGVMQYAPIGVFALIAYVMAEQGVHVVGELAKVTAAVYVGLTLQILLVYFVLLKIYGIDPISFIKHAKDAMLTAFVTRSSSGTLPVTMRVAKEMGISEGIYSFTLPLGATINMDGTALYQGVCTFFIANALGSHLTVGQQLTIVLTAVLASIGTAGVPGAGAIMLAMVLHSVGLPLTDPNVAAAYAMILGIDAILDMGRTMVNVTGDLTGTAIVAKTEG
T1 sequence (O59010 1-417 D37H/K40H/K125H/K132H/K223H/K264H/S279E/E368H/D405N): as the sequence (O59010 1-417 D37H/K40H/K125H/K132H/K223H/K264H/E368H) above, with S279E, D405N counted along it
T3 sequence (O59010 1-417 D37H/K40H/K125H/K132H/K223H/K264H/C321A/E368H/N378C): as the sequence (O59010 1-417 D37H/K40H/K125H/K132H/K223H/K264H/E368H) above, with C321A, N378C counted along it
Procedure for GltPh (C321A/N378C): Liposomes were prepared from a 3:1 (wt/wt) mixture of E. coli polar lipid extract (Avanti Polar Lipids) and egg phosphatidylcholine in SM-KCl buffer (50 mM HEPES/Tris, pH 7.4, and 200 mM KCl). Liposomes were extruded through 400-nm filters (Whatman Nucleopore) using a syringe extruder (Avanti), and destabilized by the addition of Triton X-100 at 1:2 (wt/wt) detergent-to-lipid ratio. Labeled GltPh was added to the liposome suspension at 1:1,000 (wt/wt) protein-to-lipid ratio at room temperature for 30 min. Detergent was removed by six rounds incubation of Bio-Beads (two rounds at 23°C for 2 h each, one round at 4°C overnight, and three rounds at 4°C for 2 h each). The excess substrate was removed by three rounds of centrifugation for 1 h at 49,192 g at 4°C, removal of the supernatant, addition of 1 ml fresh SM buffer, and three freeze/thaw cycles. Liposomes were concentrated to 50 mg/ml, and ccPEB1a-Y198F labeled with activated LD555P-MAL and LD655-MAL dyes as described ([Ciftci et al., 2020]) was added at a final concentration of 0.6 μM and encapsulated by two freeze–thaw cycles. To remove unencapsulated ccPEB1a-Y198F, 1 ml of SM-KCl buffer was added, and liposomes were centrifuged for 1 h at 49.192 g at 4°C. […]
Buffers were supplemented with an oxygen-scavenging system as above, and the smFRET movies were recorded with 400-ms integration time using 20–40-mW laser power. […]
Traces were analyzed using Spartan software ([Juette et al., 2016]). […] Traces with multiple photobleaching events (indicative of multiple sensors in a liposome) or inconsistent total fluorescence intensity were also discarded. Remaining traces were sorted by either the presence or absence of observable transport events (responding and nonresponding traces, respectively), determined by an increase in FRET efficiency from ∼0.55–0.6 to ∼0.75–0.8.
Responding traces from each video were plotted as time-dependent mean FRET efficiency. Buffer replacement time was determined as described ([Ciftci et al., 2020]). […]

As usually defined, the Hill coefficient is the slope factor of the fitted curve. On to `N[C@@H](CC(=O)O)C(=O)O` [L-Asp, L-aspartate], for which the “sums of the apparent stoichiometries (n1 and n2 values), average” value on P-GltPh (S279E/D405N) [1] (setting [4]) came to 0.97 ± 0.26. In addition, the “sums of the apparent stoichiometries (n1 and n2 values), range” value at P-GltPh (S279E/D405N) [1] (setting [4]) is on record as 0.74–1.53. Further, the n1 was 0.61 and 0.64 and 0.78 on P-GltPh (S279E/D405N) [1] (setting [5]); 1.13 and 0.64 and 0.63 at P-GltPh (S279E/D405N) [1] (setting [6]); 0.82 on WT GltPh (setting [7]); 0.37 on WT GltPh (setting [8]); 0.16 on WT GltPh (500 mM Na-gluconate, 35°C). The n2 at P-GltPh (S279E/D405N) [1] (setting [5]) was 0.13 and 0.20 and 0.18; at P-GltPh (S279E/D405N) [1] (setting [6]) it was 0.39 and 0.22 and 0.29; at WT GltPh (setting [7]), 0.36; on WT GltPh (setting [8]), 0.89; on WT GltPh (500 mM Na-gluconate, 35°C), 1.30. In addition, the “% n2” value is 18% and 24% and 19% on P-GltPh (S279E/D405N) [1] (setting [5]); 26% and 31% at P-GltPh (S279E/D405N) [1] (setting [6]). The ΔS1 was 32.2 cal mol^-1 K^-1 and 40.0 cal mol^-1 K^-1 and 31.1 cal mol^-1 K^-1 at P-GltPh (S279E/D405N) [1] (setting [5]); 29.4 cal mol^-1 K^-1 and 29.2 cal mol^-1 K^-1 and 31.4 cal mol^-1 K^-1 on P-GltPh (S279E/D405N) [1] (setting [6]). Besides, the ΔH on P-GltPh (S279E/D405N) [1] (15°C, 50 mM NaCl, single-state model) is -2.3 kcal/mol; on P-GltPh (S279E/D405N) [1] (15°C, 500 mM Na-gluconate, two-state model, first state) it was -2.3 kcal/mol; at P-GltPh (S279E/D405N) [1] (15°C, 500 mM Na-gluconate, two-state model, second state) it was -5.5 kcal/mol; at P-GltPh (S279E/D405N) [1] (15°C, 500 mM NaCl, two-state model, first state), -3.3 kcal/mol; on P-GltPh (S279E/D405N) [1] (15°C, 500 mM NaCl, two-state model, second state), -7.1 kcal/mol; at P-GltPh (S279E/D405N) [1] (15°C, 500 mM NaNO3, two-state model, first state), -2.1 kcal/mol. In addition, the ΔH is -6.5 kcal/mol at P-GltPh (S279E/D405N) [1] (15°C, 500 mM NaNO3, two-state model, second state); -3.7 kcal/mol at P-GltPh (S279E/D405N) [1] (15°C, 1 M NaCl, two-state model, first state); -8.7 kcal/mol at P-GltPh (S279E/D405N) [1] (15°C, 1 M NaCl, two-state model, second state). For the same compound, the “lower affinity versus GltPh” value in the assay with D390A mutant is 1,000 fold. The “loss of L-Asp affinity” value with GltPh Y317F is on record as 10 fold. Also, the Hill coefficient in assay [2] is on record as 0.69. Moreover, the ΔH1 at WT GltPh (setting [7]) was -22.7 kcal/mol; at WT GltPh (setting [8]), -50.0 kcal/mol; at WT GltPh (500 mM Na-gluconate, 35°C), -24.6 kcal/mol. Besides, the ΔH2 was 39.4 kcal/mol at WT GltPh (setting [7]); 16.2 kcal/mol on WT GltPh (setting [8]); -4.7 kcal/mol at WT GltPh (500 mM Na-gluconate, 35°C). For the same compound, the “shape of ITC competition isotherms” value on WT GltPh (GltPh saturated with TFB-TBOA, competed with L-Asp, 15°C) was “bimodal isotherms”.
With `O=C([O-])[C@H](O)[C@@H](O)[C@H](O)[C@H](O)CO.[Na+]` [Na-gluconate, sodium gluconate], the “Slow (%) transporter population” value at GltPh (C321A/N378C) is listed as 81.1 ± 3.1%.
`[Cl-].[Na+]` [NaCl]: the “fitted OFS2 fraction” value is given as roughly 20% at P-GltPh (S279E/D405N) [1] (10°C) and roughly 28% at P-GltPh (S279E/D405N) [1] (15°C). For the same compound, the “Slow (%) transporter population” value at GltPh (C321A/N378C) is on record as 79.5 ± 3.4%.
On to `O=[N+]([O-])[O-].[Na+]` [NaNO3], for which, at P-GltPh (S279E/D405N) [1] (15°C), the “fitted OFS2 fraction” value is roughly 38%. Besides, on GltPh (C321A/N378C), the “Slow (%) transporter population” value is reported as 87.3 ± 2.2%.
For `N[C@H](C(=O)O)[C@H](OCc1cccc(NC(=O)c2ccc(C(F)(F)F)cc2)c1)C(=O)O` [TFB-TBOA], at WT GltPh (15°C, 500 mM Na-gluconate, NaCl or NaNO3), the “shape of ITC binding isotherms” value was “bimodal ITC isotherms”. For the same compound, the “preference for OFS” value in the assay with GltPh is 100 fold.
A word on the stoichiometry N: it is a count of units in the complex or per binding partner. With “P-GltPh (S279E/D405N) (from UniProt O59010 1-417)”, in the assay with P-GltPh (S279E/D405N) [3], the stoichiometry N was found to be 3.

These data come from paper PMC9044058 (The Journal of General Physiology, 2022).
